Earlier results in patent publication US20130064803A1, “BIO-REPLENISHMENT (BioRep) FOR COGNITIVE HEALTH” (Naidu LP, priority 2011, published 2013).

Tests used:
[1] = in vivo

N[C@@H](Cc1c[nH]c2ccc(O)cc12)C(=O)O [5-HTP, 5-hydroxy-tryptophan]
share of an oral dose ending up in the bloodstream: about 70%

C[S+](CC[C@H](N)C(=O)O)C[C@H]1O[C@@H](n2cnc3c(N)ncnc32)[C@H](O)[C@@H]1O (some centres unmarked) [SAMe, S-adenosylmethionine]
first-pass, share metabolized in the liver [1]: approximately 50%
